In patent US20230158025A1 (UNIVERSITY OF UTAH RESEARCH FOUNDATION, priority 2020, published 2023):
Read-outs that look alike come from different tables or passages of the source.

Columns and labels:
recombinant mouse GALK1 = recombinant mouse GALK1 (Mus musculus, UniProt Q9R0N0); assay: mGALK1 biochemical activity assay (Kinase-Glo Plus, ATP depletion)
Outline: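 Recombinant GALK1 (5 nM) with 100 μM galactose; GALK1 turnover read as ATP depletion by Kinase-Glo Plus luminescence. Reaction ran 1 h at room temperature before detection reagent was added.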

recombinant human GALK1 = recombinant human GALK1 (Homo sapiens, UniProt P51570); assay: hGALK1 biochemical activity assay (Kinase-Glo Plus, ATP depletion)
Sequence of recombinant human GALK1 (P51570 whole entry): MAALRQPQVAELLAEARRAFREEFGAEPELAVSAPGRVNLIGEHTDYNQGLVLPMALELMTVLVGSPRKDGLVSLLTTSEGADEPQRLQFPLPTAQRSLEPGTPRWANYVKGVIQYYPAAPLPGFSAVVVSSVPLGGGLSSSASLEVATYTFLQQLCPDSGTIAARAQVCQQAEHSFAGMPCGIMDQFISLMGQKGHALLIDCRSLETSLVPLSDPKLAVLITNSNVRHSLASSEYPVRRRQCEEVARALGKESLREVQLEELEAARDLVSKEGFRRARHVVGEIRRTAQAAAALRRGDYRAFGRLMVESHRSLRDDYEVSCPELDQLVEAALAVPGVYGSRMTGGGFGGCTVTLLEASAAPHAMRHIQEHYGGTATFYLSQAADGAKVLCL
Outline: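 Recombinant human or mouse GALK1 (5 nM, with 100 μM galactose, in the added enzyme solution) was run with ATP (35 μM in the substrate solution) in HEPES pH 8.0 buffer. Compounds were tested at 11 1/3-step concentrations from 57.4 μM to 0.97 nM. After 1 h at room temperature, remaining ATP was read by Kinase-Glo Plus luminescence.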

hGALK1m = biological target: T1, hGALK1m (Homo sapiens, UniProt P51570, E253A/K252A); assay: in vitro hGALK1 activity assay of the structure-based optimisation (Example 12, Tables 17-20); type: biochemical
T1 construct: made in house; host or cells: E. coli HMS174
T1 sequence (P51570 whole entry K252A/E253A): as the sequence (P51570 whole entry) above, with K252A, E253A counted along it

in vitro [1] = conditions: PAMPA, ADME P: PAMPA permeability (class)
in vitro [2] = conditions: rat, microsomes
[3] = rat
[4] = PAMPA
[5] = aqueous kinetic solubility; conditions: aqueous kinetic solubility
[6] = system: skin fibroblasts derived from GALT-deficient patients; assay: Gal-1-p accumulation assay in patient fibroblasts; type: cell-based, human
Method: Skin fibroblasts derived from GALT-deficient patients were maintained in galactose-free culture medium supplemented with 10% hexose-free fetal bovine serum (FBS). Before galactose challenge, inhibitors were added to the medium at designated concentrations and incubated at 37° C. for 4 hr. Then, galactose was added to reach 0.05% in the medium. After 4 hr of challenge, cells were collected and washed twice with PBS. Then, the cells were disrupted in 300 μL of ice-cold hypotonic buffer containing 25 mM Tris-HCl (pH 7.4), 25 mM NaCl, 0.5 mM EDTA, and protease inhibitor cocktail (Roche). The lysates were passed five times through a 30-gauge needle and centrifuged for 20 min at 16,000×g and 4° C. A small portion of supernatant was saved for protein concentration measurement. Gal-1-p level was measured using the alkaline phosphatase coupled method previously described. The gal-1-p concentration was normalized to protein concentration. The assay was analyzed using the paired t-test to determine the statistical difference between the compound treated cells and corresponding DMSO control. The two-sided p value less than 0.05 was considered statistically significant.
For measurement of cellular Gal-1P reduction, compounds at different concentrations were added to cultured patient fibroblast at 80% confluency. After incubating the compounds for 16 hours, 10 mM galactose was added to the culture. After another 4-hours, cells were washed with cold PBS buffer 3× and harvested for gal-1P measurement, according to previously published method. Liu et al., Bioorg. Med. Chem. Lett. 25(3): 721-727 (2015).
The in vitro hGALK1 activity assay was performed as previously described. Liu et al., Bioorg. Med. Chem. Lett. 25(3): 721-727 (2015). For the measurement of cellular Gal-1P reduction, compounds at different concentrations were added to cultured patient fibroblast at 80% confluency. After incubating the compounds for 16 hours, 10 mM galactose was added to the culture. […]

[7] = mouse liver microsome stability (MLM); type: in vitro ADME; conditions: GALK lead profile
[8] = human liver microsome stability (HLM); type: in vitro ADME; conditions: GALK lead profile
[9] = rat microsomal stability (RLM)
[10] = recombinant mouse GALK1, Kinase-Glo Plus ATP depletion, read-out: mGALK
[11] = recombinant human GALK1, Kinase-Glo Plus ATP depletion, read-out: hGALK

Sequence of recombinant mouse GALK1 (Q9R0N0 whole entry): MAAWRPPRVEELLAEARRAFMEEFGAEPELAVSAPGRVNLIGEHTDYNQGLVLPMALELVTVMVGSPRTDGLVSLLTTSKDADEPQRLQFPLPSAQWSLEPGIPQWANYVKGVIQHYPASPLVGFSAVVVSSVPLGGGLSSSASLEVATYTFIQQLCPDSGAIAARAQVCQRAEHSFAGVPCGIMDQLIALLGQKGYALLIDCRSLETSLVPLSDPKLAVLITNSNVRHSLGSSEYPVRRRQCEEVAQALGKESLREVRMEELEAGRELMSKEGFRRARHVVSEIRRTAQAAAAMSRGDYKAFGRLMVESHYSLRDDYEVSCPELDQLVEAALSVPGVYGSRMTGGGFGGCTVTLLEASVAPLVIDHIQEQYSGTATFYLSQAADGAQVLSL

## CC1=C(C(=O)Nc2cc(C(=O)O)ccn2)C(c2ccccc2Cl)N=C(Nc2nc3cc(Cl)ccc3o2)N1 (stereo not drawn) [Compound 9, 2-(2-((5-chlorobenzo[d]oxazol-2-yl)amino)-4-(2-chlorophenyl)-6-methyl-1,4-dihydropyrimidine-5-carboxamido)isonicotinic acid]
Recombinant mouse GALK1; Tables 2-15, 35 μM ATP, 100 μM galactose, 1 h, bracketed figure after some values is undefined and not reported, read-out: mGALK IC50
  IC50: 6110 nM
Recombinant mouse GALK1; [10]
  IC50: 6110 nM
Recombinant human GALK1; [11]
  IC50: 2430 nM
hGALK1m; Tables 18-19, read-out: Max Response (%)
  Emax: 100%
hGALK1m; Tables 18-19 and text of Example 12
  IC50: 1700 nM
In vitro [1]
  Papp: < 10 ×10⁻⁶ cm/s
In vitro [2]
  half-life: < 10 min
[3]
  Metab. Stabil. (m): >30 m
[4]
  Perm. (1 × 10^−6 cm/sec): <1 1 × 10^−6 cm/sec

## CC1=C(C(=O)NCc2cnn(C)c2)C(c2ccc(C)cc2Cl)N=C(Nc2nc3ccc(F)c(N)c3o2)N1 (stereo not drawn) [Compound 126, 2-((7-amino-6-fluorobenzo[d]oxazol-2-yl)amino)-4-(2-chloro-4-methylphenyl)-6-methyl-N-((1-methyl-1H-pyrazol-4-yl)methyl)-1,4-dihydropyrimidine-5-carboxamide]
[5]
  Sol.: 1.27 µg/mL
Recombinant mouse GALK1; [10]
  IC50: 690 nM
Recombinant human GALK1; Tables 2-15, 35 μM ATP, 100 μM galactose, 1 h, bracketed figure after some values (e.g. −1.2) is undefined and not reported, read-out: hGALK IC50
  IC50: 50 nM
Recombinant human GALK1; [11]
  IC50: 50 nM
[6]; CG patient fibroblasts
  effect on Gal-1P accumulation (FIG. 5A): inhibited Gal-1P accumulation
[6]; concentration increased from 0.5 μM to 1 μM
  change of Gal-1P inhibition with concentration (FIG. 5B): significantly greater inhibition of Gal-1P accumulation
[6]; concentration increased from 1 μM to 3 μM
  change of Gal-1P inhibition with concentration (FIG. 5B): did not increase significantly
hGALK1m; Tables 18-20 and text of Example 12
  IC50: 14 nM
[7]
  MLM t: 13 min
PAMPA permeability; GALK lead profile, two values given
  PAMPA: 485 10^−6 cm/s
PAMPA permeability; PAMPA
  Perm. (1 × 10^−6 cm/sec): 459.1 1 × 10^−6 cm/sec
PAMPA permeability; PAMPA, GALK lead profile, two values given
  Papp: 390 ×10⁻⁶ cm/s
[8]
  HLM t: 47 min
[9]; GALK lead profile
  RLM t: 16 min
[9]; microsomal stability half-life
  Metab. Stabil. (m): 17.1 m
